The assay has as its target hTDO2 in human glioblastoma A172 cells (Homo sapiens (Human), UniProt P48775). In words: Cellular assay for TDO2 activity determination in A172 cells. It is filed as cell-based. The following applies: overnight incubation, kynurenine absorbance at 480 nm. The procedure: The compounds of formula I inhibit the activity of human TDO2 in cells that constitutively express TDO2, such as A172 cells. A172 is a cell line derived from human brain glioblastoma cells. The cells are available from the American Type Culture Collection (ATCC®) as CRL-1620™.
The assay (adapted from Pilotte L et al., Proc Natl Acad Sci USA, 2012, 109(7), 2497-502) was performed in 96-well flat bottom plates seeded with human glioblastoma A172 cells, naturally expressing hTDO2 (prepared as described in Tilman et al., Mol Cancer, 2007, 17(6), 80), at a concentration of 1.25×10^4 cells/well in a final volume of 200 μL. To determine TDO, the cells were incubated overnight at 37° C. at 5% CO2 in IMDM (Invitrogen) supplemented with 2% FBS and 2% penicillin/streptomycin in the presence of the compounds of the present invention, at different concentrations.
The plates were then centrifuged 5 min at 1000 rpm, and 100 μL of the supernatant were collected in a conical plate, 30 μL of TCA 30% were added and a further centrifuged at 3000×g for 10 minutes. 100 μL of the supernatant were collected in a flat bottomed plate and 100 μL of 2% (w/v) 4-(dimethylamino)-benzaldehyde in acetic acid and incubated for 5 min at room temperature. Kynurenine concentrations were determined by measuring the absorbance at 480 nm. A standard curve was made with pure kynurenine. The TDO activity was measured as described above using ten serial concentrations of the compounds of the present invention. Data were fitted using the Prism™ software (GraphPad Software, Inc.) using standard parameters.
Sequence of hTDO2 in human glioblastoma A172 cells (P48775 whole entry): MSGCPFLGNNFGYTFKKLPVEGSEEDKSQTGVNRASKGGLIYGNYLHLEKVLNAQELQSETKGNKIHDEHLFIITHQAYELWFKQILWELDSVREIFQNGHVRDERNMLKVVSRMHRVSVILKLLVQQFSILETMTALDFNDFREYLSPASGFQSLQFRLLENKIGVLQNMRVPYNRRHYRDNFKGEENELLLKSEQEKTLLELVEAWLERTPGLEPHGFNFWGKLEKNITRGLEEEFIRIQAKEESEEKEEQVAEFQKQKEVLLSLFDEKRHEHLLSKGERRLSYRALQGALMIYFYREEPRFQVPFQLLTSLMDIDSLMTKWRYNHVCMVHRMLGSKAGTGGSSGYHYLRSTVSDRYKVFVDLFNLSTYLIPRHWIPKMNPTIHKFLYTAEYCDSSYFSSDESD
Turning to `NC(=O)CCCNS(=O)(=O)c1ccc(-c2c[nH]c3cc(F)ccc23)cc1` [Example 53, 4-(4-(6-fluoro-1H-indol-3-yl)phenylsulfonamido)butanamide], the IC50 – broadly, the concentration that inhibits the measured activity by half – turned out to be 0.21 µM.

Take `CN(CCCC(N)=O)S(=O)(=O)c1ccc(-c2c[nH]c3cc(F)ccc23)cc1` [Example 54, 4-(4-(6-fluoro-1H-indol-3-yl)-N-methylphenylsulfonamido)-butanamide]: the IC50 is 0.25 µM.

Take `O=S(=O)(N[C@@H]1CCOC1)c1ccc(-c2c[nH]c3cc(F)ccc23)cc1` [Example 55, (R)-4-(6-fluoro-1H-indol-3-yl)-N-(tetrahydrofuran-3-yl)-benzenesulfonamide]: the IC50 stood at 0.21 µM.

Turning to `Cc1ccc(-c2c[nH]c3cc(F)ccc23)cc1S(=O)(=O)NCCN` [Example 56, N-(2-aminoethyl)-5-(6-fluoro-1H-indol-3-yl)-2-methylbenzenesulfonamide], the IC50 is 0.67 µM.

As for `CNC(=O)c1cc(-c2c[nH]c3cc(F)ccc23)ccc1S(=O)(=O)N1CCNCC1` [Example 57, 5-(6-fluoro-1H-indol-3-yl)-N-methyl-2-(piperazin-1-ylsulfonyl)-benzamide], the half-inhibitory concentration (IC50) amounted to 7.1 µM.

Molecule `Cc1noc(CCNS(=O)(=O)c2ccc(-c3c[nH]c4cc(F)ccc34)cc2)n1` [Example 59, 4-(6-fluoro-1H-indol-3-yl)-N-(2-(3-methyl-1,2,4-oxadiazol-5-yl)-ethyl)benzenesulfonamide] returned an IC50 of 0.36 µM.

Turning to `CNC(=O)n1cc(-c2ccc(S(=O)(=O)N3CCNCC3)cc2)c2ccc(F)cc21` [Example 60, 6-fluoro-N-methyl-3-(4-(piperazin-1-ylsulfonyl)phenyl)-1H-indole-1-carboxamide], it took 9.1 µM to reach half-maximal inhibition (IC50).

As for `COc1cc(-c2c[nH]c3cc(F)ccc23)cc(S(=O)(=O)NCCN)c1` [Example 61, N-(2-aminoethyl)-3-(6-fluoro-1H-indol-3-yl)-5-methoxybenzene-sulfonamide], the midpoint of inhibition, the IC50, lay at 4.3 µM.

`NCCNS(=O)(=O)c1ccc(F)c(-c2c[nH]c3cc(F)ccc23)c1` [Example 62, N-(2-aminoethyl)-4-fluoro-3-(6-fluoro-1H-indol-3-yl)benzene-sulfonamide] yielded an IC50 of 3.5 µM.

For `O=S(=O)(c1ccc(-c2c[nH]c3cc(F)ccc23)cc1)N1CC(CO)C1` [Example 63, (1-((4-(6-fluoro-1H-indol-3-yl)phenyl)sulfonyl)-azetidin-3-yl)methanol], the half-maximal inhibitory concentration (IC50) amounted to 0.17 µM.

Molecule `O=S(=O)(N[C@H]1CCOC1)c1ccc(-c2c[nH]c3cc(F)ccc23)cc1` [Example 64, (S)-4-(6-fluoro-1H-indol-3-yl)-N-(tetrahydrofuran-3-yl)-benzenesulfonamide] yielded an IC50 of 0.27 µM.

In turn, `O=S(=O)(c1ccc(-c2c[nH]c3cc(F)ccc23)cc1)N1CC(O)C1` [Example 65, 1-((4-(6-fluoro-1H-indol-3-yl)phenyl)sulfonyl)azetidin-3-ol] showed an IC50 of 0.16 µM.

`O=S(=O)(c1ccc(-c2c[nH]c3cc(F)ccc23)cc1)N1C[C@H](O)[C@@H](O)C1` [Example 66, (3S,4S) 1-[4-(6-Fluoro-1H-indol-3-yl)-benzenesulfonyl]-pyrrolidine-3,4-diol] returned an IC50 of 0.084 µM.

Turning to `NC(=O)C1CN(S(=O)(=O)c2ccc(-c3c[nH]c4cc(F)ccc34)cc2)C1` [Example 67, 1-((4-(6-fluoro-1H-indol-3-yl)phenyl)sulfonyl)azetidine-3-carboxamide], half-maximal inhibition (IC50) was put at 0.18 µM.

As to `O=S(=O)(NC1CNC1)c1ccc(-c2c[nH]c3cc(F)ccc23)cc1` [Example 68, N-(azetidin-3-yl)-4-(6-fluoro-1H-indol-3-yl)benzenesulfonamide], it took 0.14 µM to reach half-maximal inhibition (IC50).

`NCCNS(=O)(=O)c1cc(O)cc(-c2c[nH]c3cc(F)ccc23)c1` [Example 69, N-(2-aminoethyl)-3-(6-fluoro-1H-indol-3-yl)-5-hydroxy-benzenesulfonamide]: it took 0.33 µM to reach half-maximal inhibition (IC50).

Consider `CC(=O)n1cc(-c2ccc(S(=O)(=O)N3CCNCC3)cc2)c2ccc(F)cc21` [Example 70, 1-(6-fluoro-3-(4-(piperazin-1-ylsulfonyl)phenyl)-1H-indol-1-yl)ethanone], for which the half-maximal inhibitory concentration (IC50) was 0.58 µM.

`Cc1cc(-c2c[nH]c3cc(F)ccc23)cc(C)c1S(=O)(=O)N1CCNCC1` [Example 71, 3-(3,5-dimethyl-4-(piperazin-1-ylsulfonyl)phenyl)-6-fluoro-1H-indole] came in with an IC50 of 0.45 µM.

In turn, `O=S(=O)(NCCc1c[nH]nn1)c1ccc(-c2c[nH]c3cc(F)ccc23)cc1` [Example 72, N-(2-(1H-1,2,3-triazol-4-yl)ethyl)-4-(6-fluoro-1H-indol-3-yl)benzenesulfonamide] came in with an IC50 of 0.3 µM.

Consider `O=S(=O)(NCCc1ncc[nH]1)c1ccc(-c2c[nH]c3cc(F)ccc23)cc1` [Example 73, N-(2-(1H-imidazol-2-yl)ethyl)-4-(6-fluoro-1H-indol-3-yl)benzenesulfonamide], for which the IC50 is 0.15 µM.

`O=S(=O)(c1ccc(-c2c[nH]c3cc(F)ccc23)cc1)N1C[C@@H](O)[C@H](O)C1` [Example 74, (3R,4R)-1-((4-(6-fluoro-1H-indol-3-yl)phenyl)-sulfonyl)pyrrolidine-3,4-diol] displayed a half-inhibitory concentration (IC50) of 0.096 µM.

In the case of `O=S(=O)(c1c(F)cc(-c2c[nH]c3cc(F)ccc23)cc1F)N1CCNCC1` [Example 75, 3-(3,5-difluoro-4-(piperazin-1-ylsulfonyl)phenyl)-6-fluoro-1H-indole], the concentration for half-maximal inhibition (IC50) was 0.38 µM.

`NC(=O)n1cc(-c2ccc(S(=O)(=O)N3CCNCC3)cc2)c2ccc(F)cc21` [Example 78, 6-fluoro-3-(4-(piperazin-1-ylsulfonyl)phenyl)-1H-indole-1-carboxamide] registered an IC50 of 18 µM.

As for `N[C@@H]1CN(S(=O)(=O)c2ccc(-c3c[nH]c4cc(F)ccc34)cc2)C[C@H]1F` [Example 82, (3R,4R)-4-fluoro-1-{[4-(6-fluoro-1H-indol-3-yl)phenyl]sulfonyl}pyrrolidin-3-amine], the IC50 turned out to be 0.25 µM.

`N[C@@H]1CN(S(=O)(=O)c2ccc(-c3c[nH]c4cc(F)ccc34)cc2)C[C@@H]1F` [Example 83, (−)-(cis)-4-fluoro-1-((4-(6-fluoro-1H-indol-3-yl)-phenyl)sulfonyl)-pyrrolidin-3-amine] returned an IC50 of 0.11 µM.

With `CC(NS(=O)(=O)c1ccc(-c2c[nH]c3cc(F)ccc23)cc1)c1nncn1C` (stereo not drawn) [Example 85, 4-(6-fluoro-1H-indol-3-yl)-N-[1-(4-methyl-4H-1,2,4-triazol-3-yl)ethyl]benzenesulfonamide], the concentration for half-maximal inhibition (IC50) was found to be 0.39 µM.

For `Cc1nnc(CNS(=O)(=O)c2ccc(-c3c[nH]c4cc(F)ccc34)cc2)o1` [Example 89, 4-(6-fluoro-1H-indol-3-yl)-N-((5-methyl-1,3,4-oxadiazol-2-yl)methyl) benzenesulfonamide], the IC50 was found to be 0.2 µM.

In the case of `Cn1nccc1NS(=O)(=O)c1ccc(-c2c[nH]c3cc(F)ccc23)cc1` [Example 91, 4-(6-fluoro-1H-indol-3-yl)-N-(1-methyl-1H-pyrazol-5-yl)benzenesulfonamide], the IC50 was 1.8 µM.

Molecule `Cn1cnnc1CNS(=O)(=O)c1ccc(-c2c[nH]c3cc(F)ccc23)cc1` [Example 92, 4-(6-fluoro-1H-indol-3-yl)-N-[(4-methyl-4H-1,2,4-triazol-3-yl)methyl]-benzenesulfonamide] yielded an IC50 of 0.56 µM.

In the case of `CNS(=O)(=O)CCN(C)S(=O)(=O)c1ccc(-c2c[nH]c3cc(F)ccc23)cc1` [Example 100, 4-(6-fluoro-1H-indol-3-yl)-N-methyl-N-[2-(methylsulfamoyl)ethyl]benzenesulfonamide], the IC50 was found to be 0.1 µM.

With `C[C@@H](CO)NS(=O)(=O)c1ccc(-c2c[nH]c3cc(F)ccc23)cc1` [Example 101, (−)-(6-fluoro-1H-indol-3-yl)-N-[(2S)-1-hydroxypropan-2-yl]benzenesulfonamide], the IC50 is 0.093 µM.

Molecule `O=C(CCNS(=O)(=O)c1ccc(-c2c[nH]c3cc(F)ccc23)cc1)N1CCNCC1` [Example 102, 4-(6-fluoro-1H-indol-3-yl)-N-(3-oxo-3-(piperazin-1-yl)propyl) benzenesulfonamide] had an IC50 of 0.26 µM.

Molecule `CN1CCN(C(=O)CCNS(=O)(=O)c2ccc(-c3c[nH]c4cc(F)ccc34)cc2)CC1` [Example 103, 4-(6-fluoro-1H-indol-3-yl)-N-(3-(4-methylpiperazin-1-yl)-3-oxopropyl) benzenesulfonamide] returned an IC50 of 0.26 µM.

For `O=C(CCNS(=O)(=O)c1ccc(-c2c[nH]c3cc(F)ccc23)cc1)N[C@H]1CCOC1` [Example 104, (−)-(S)-3-(4-(6-fluoro-1H-indol-3-yl)phenylsulfonamido)-N-(tetrahydrofuran-3-yl)propanamide], half-maximal inhibition (IC50) required 0.24 µM.

In the case of `N[C@H]1CN(C(=O)CCNS(=O)(=O)c2ccc(-c3c[nH]c4cc(F)ccc34)cc2)C[C@@H]1F` [Example 105, (−)-N-(3-((3S,4S)-3-amino-4-fluoropyrrolidin-1-yl)-3-oxopropyl)-4-(6-fluoro-1H-indol-3-yl)benzenesulfonamide], 0.22 µM corresponded to half-maximal inhibition (IC50).

The molecule `O=C(CCNS(=O)(=O)c1ccc(-c2c[nH]c3cc(F)ccc23)cc1)N1CCOCC1` [Example 106, 4-(6-fluoro-1H-indol-3-yl)-N-(3-morpholino-3-oxopropyl)-benzenesulfonamide] had an IC50 of 0.27 µM.

The record behind these values is US10544095B2 (Pfizer Inc., priority 2015, dated 2020).
